Measured values published in patent publication US10745428B2, “Antiviral phosphodiamide prodrugs of tenofovir” (Merck Sharp & Dohme Corp., priority 2015, dated 2020).
Like-named read-outs stand apart in the source and are kept apart here.

Experiments:
[1] = Prodrug stability assay in bio-relevant media (FaSSIF with Pancreatin), GI Tract stability; format: in vitro ADME; conditions: HPLC peak area of prodrug at 5 h divided by area at 0 h; 0.5 mg/mL Pancreatin in FaSSIF, 37° C.
Description: The following assay was employed to evaluate the stability of the prodrugs in simulated gastrointestinal tract conditions. Preparation of fasted state simulated intestinal fluid (FaSSIF) using Phares SIF Powder was carried out according to protocols from Phare Drug Delivery AG (Baselland, Switzerland). For sample preparation, 10 μL stock solutions (10 mM) of prodrug substance in DMSO was added to 990 μL of 0.5 mg/mL Pancreatin solution (Fisher CAS#8049-47-6) in FaSSIF. Two samples were prepared for each compound. If the sample was a clear solution, it was directly analyzed by HPLC. If the sample was not clear, the sample was diluted with 100% ACN, maintained at 37° C. and observed 5 h later. If the sample was clear, HPLC analysis was directly performed. If the sample was still not clear, the sample was diluted with 100% ACN and assayed by HPLC. All the samples were vortexed for 3 min and observed before injection. For the diluted samples, the area is multiplied by a factor when the data is analyzed. The analysis was carried out with an Agilent 1100 series HPLC with autosampler. The column was usually a Poroshell 120 EC-C18, 4.6×50 mm, 2.7 μm. The flow rate was 1.8 mL/min, and the injection volume was 5 or 10 μL. UV detection was in the range 210-400 nm. The mobile phase consisted of solvent A (water plus 10 mM tetrabutylammonium bromide) and solvent B (acetonitrile) with a gradient of 90% solvent A at 0 min, changing to 95% solvent B over 6 min, maintaining for 1.5 min, then reverting to 90% solvent A over 1.6 min. The HPLC peak area of the prodrug at 5 h was divided by the HPLC peak area of the prodrug at 0 h, to generate the % claimed parent ratio, which is summarized in Table 2. for GI Tract stability.

[2] = system: HIV-1 (H9/IIIB strain); experiment: Multiple round HIV-1 infection assay (Viking assay), HIV-1 replication in MT4-GFP cells; format: cell-based; conditions: MT4-GFP cells infected with HIV-1 H9/IIIB
Description: The antiviral activity of the tenofovir prodrugs of the Examples herein was assessed in an assay that measures the rate of replication of HIV in cell culture, termed the Viking assay (VIral KINetics in Green cells) and performed as follows. HIV-1 replication was monitored using MT4-gag-GFP clone D3 (hereafter designated MT4-GFP; GFP is green fluorescent protein), which are MT-4 cells modified to harbor a GFP reporter gene, the expression of which is dependent on the HIV-1 expressed proteins tat and rev; see Wang Y-J et al., 2010J Virological Methods 165:230-237. Productive infection of an MT4-GFP cell with HIV-1 results in GFP expression approximately 24 h post-infection. MT4-GFP cells were maintained at 37° C./5% CO2/90% relative humidity in RPMI 1640 supplemented with 10% fetal bovine serum, 100 U/ml penicillin/streptomycin, and 400 μg/ml G418 to maintain the reporter gene. For infections, MT4-GFP cells were placed in the same medium lacking G418 and infected overnight with HIV-1 (H9/IIIB strain) virus at an approximate multiplicity of infection of 0.01 in the same incubation conditions. Cells were then washed and re-suspended in either RPMI 1640 supplemented with 10% or 50% normal human serum (NHS) at 1.6×10^5 cells/mL (10% NHS or 50% NHS, respectively). Compound plates were prepared by dispensing compounds dissolved in DMSO into wells of 384 well poly-D-lysine-coated plates (0.2 μl/well) using an ECHO acoustic dispenser. Each compound was tested in a 10-point serial 3-fold dilution (typical final concentrations: 8.4 μM-0.42 nM). Controls included no inhibitor (DMSO only) and a combination of three antiviral agents (efavirenz, indinavir, and an integrase strand transfer inhibitor at final concentrations of 4 μM each). Cells were added (50 μL/well) to compound plates and the infected cells were maintained at 37′C/5% CO2/90% relative humidity.
Infected cells were quantified at two time points, ˜48 h and ˜72 h post-infection, by counting the number of green cells in each well using an Acumen eX3 scanner. The increase in the number of green cells over ˜24 h period gives the reproductive ratio, R0, which is typically 5-15 and has been shown experimentally to be in logarithmic phase (data not shown). R0 is calculated for each well, and IC50s determined by non-linear 4-parameter curve fitting.

[3] = 10% normal human serum, read-out: Viking, IC50 (10% NHS)
[4] = 50% normal human serum, read-out: Viking, IC50 (50% NHS)
[5] = Human immunodeficiency virus 1, IIIB, 10% normal human serum, read-out: Viking, IC50 (10% NHS)
[6] = Human immunodeficiency virus 1, IIIB, 50% normal human serum, read-out: Viking, IC50 (50% NHS)

Row | SMILES | GI Tract stability [1] [%] | IC50 [2, 3] [nM] | IC50 [2, 4] [nM] | IC50 [2, 5] [nM] | IC50 [2, 6] [nM]
1 | CCCCCCOC(=O)[C@@H](C)NP(=O)(CO[C@H](C)Cn1cnc2c(N)ncnc21)NC(C)(C)C(=O)OCCCCCC (single isomer, unassigned) [Example 13A] | 99.1 |  |  | 7.2 | 40.4
2 | CCCCCCOC(=O)C(C)(C)NP(=O)(CO[C@H](C)Cn1cnc2c(N)ncnc21)N[C@H](C)C(=O)OC1CCCC1 (single isomer, unassigned) [Example 14B] | 47.2 | 0.6 | 2 |  | 
3 | CCCCCCOC(=O)C(C)(C)NP(=O)(CO[C@H](C)Cn1cnc2c(N)ncnc21)N[C@H](C)C(=O)OC1CCCCC1 (single isomer, unassigned) [Example 15B] | 51.2 | 0.7 | 2.1 |  | 
4 | CCCCCOC(=O)[C@@H](C)NP(=O)(CO[C@H](C)Cn1cnc2c(N)ncnc21)NC(C)(C)C(=O)OCCCCC (single isomer, unassigned) [Example 16B] | 97.8 | 0.9 | 4.2 |  | 
5 | CC(C)OC(=O)C(C)(C)NP(=O)(CO[C@H](C)Cn1cnc2c(N)ncnc21)N[C@H](C)C(=O)OC1CCC1 (single isomer, unassigned) [Example 18B] | 97.4 | 11 | 25.8 |  | 
6 | CCCCCOC(=O)C(C)(C)NP(=O)(CO[C@H](C)Cn1cnc2c(N)ncnc21)N[C@H](C)C(=O)OC1CCC1 (single isomer, unassigned) [Example 19B] | 49.3 | 2.5 | 10.8 |  | 
7 | CC(C)COC(=O)C(C)(C)NP(=O)(CO[C@H](C)Cn1cnc2c(N)ncnc21)N[C@H](C)C(=O)OC1CCC1 (single isomer, unassigned) [Example 20A] | 98.1 | 5.9 | 17.4 |  | 
8 | CC(C)COC(=O)C(C)(C)NP(=O)(CO[C@H](C)Cn1cnc2c(N)ncnc21)N[C@H](C)C(=O)OC1CCC1 (single isomer, unassigned) [Example 20B] | 71.0 | 1.7 | 5.9 |  | 
9 | CCCOC(=O)C(C)(C)NP(=O)(CO[C@H](C)Cn1cnc2c(N)ncnc21)N[C@H](C)C(=O)OC1CCC1 (single isomer, unassigned) [Example 22A] | 98.2 | 11.6 | 50.9 |  | 
10 | CCCOC(=O)C(C)(C)NP(=O)(CO[C@H](C)Cn1cnc2c(N)ncnc21)N[C@H](C)C(=O)OC1CCC1 (single isomer, unassigned) [Example 22B] | 72.6 | 4.4 | 15.4 |  | 
11 | CCCCOC(=O)C(C)(C)NP(=O)(CO[C@H](C)Cn1cnc2c(N)ncnc21)N[C@H](C)C(=O)OC1CCC1 (single isomer, unassigned) [Example 23B] | 58.6 | 6 | 13.6 |  | 
12 | CCCCCOC(=O)C(C)(C)NP(=O)(CO[C@H](C)Cn1cnc2c(N)ncnc21)N[C@H](C)C(=O)OC1CCCC1 (single isomer, unassigned) [Example 24A] | 97.8 | 3.2 | 30.6 |  | 
13 | CCCCCOC(=O)C(C)(C)NP(=O)(CO[C@H](C)Cn1cnc2c(N)ncnc21)N[C@H](C)C(=O)OC1CCCC1 (single isomer, unassigned) [Example 24B] | 82.7 | 0.9 | 3.9 |  | 
14 | CCCCCOC(=O)[C@@H](C)N(C)P(=O)(CO[C@H](C)Cn1cnc2c(N)ncnc21)NC(C)(C)C(=O)OCCCCC (single isomer, unassigned) [Example 25B] | 94.4 |  |  | 3.6 | 9.6
15 | CCCCCOC(=O)[C@H]1CCCN1P(=O)(CO[C@H](C)Cn1cnc2c(N)ncnc21)NC(C)(C)C(=O)OCCCCC (single isomer, unassigned) [Example 26B] | 92.5 | 4.4 | 19.5 |  | 
16 | C[C@H](Cn1cnc2c(N)ncnc21)OCP(=O)(N[C@H](C)C(=O)OC1CCCC1)NC(C)(C)C(=O)OC1CCCCC1 (single isomer, unassigned) [Example 27B] | 93.5 | 1.6 | 4.7 |  | 
17 | C[C@H](Cn1cnc2c(N)ncnc21)OCP(=O)(N[C@H](C)C(=O)OC1CCCC1)NC(C)(C)C(=O)OC1CCC1 (single isomer, unassigned) [Example 28B] | 90.2 | 2.7 | 3.3 |  | 

Further lines, with some results ahead:

Row | GI Tract stability [1] [%] | SMILES | IC50 [2, 3] [nM] | IC50 [2, 4] [nM] | IC50 [2, 5] [nM] | IC50 [2, 6] [nM]
18 | 100 | CCCCCCOC(=O)C(C)(C)NP(=O)(CO[C@H](C)Cn1cnc2c(N)ncnc21)N[C@H](C)C(=O)OC(C)C (single isomer, unassigned) [Example 2A] | 15.9 | 78 |  | 
19 | 94.2 | CCCCCCOC(=O)C(C)(C)NP(=O)(CO[C@H](C)Cn1cnc2c(N)ncnc21)N[C@H](C)C(=O)OC(C)C (single isomer, unassigned) [Example 2B] | 1.3 | 5.2 |  | 
20 | 95.6 | CCCCOC(=O)[C@@H](C)NP(=O)(CO[C@H](C)Cn1cnc2c(N)ncnc21)NC(C)(C)C(=O)OC(C)C (single isomer, unassigned) [Example 3B] | 3.8 | 20.5 |  | 
21 | 100 | CCCCCOC(=O)C(C)(C)NP(=O)(CO[C@H](C)Cn1cnc2c(N)ncnc21)N[C@H](C)C(=O)OCCCC (single isomer, unassigned) [Example 9A] | 6.1 | 19.8 |  | 
22 | 73.9 | CCCCCOC(=O)C(C)(C)NP(=O)(CO[C@H](C)Cn1cnc2c(N)ncnc21)N[C@H](C)C(=O)OCCCC (single isomer, unassigned) [Example 9B] | 1 | 4.2 |  | 
23 | 66.8 | CCCCCCOC(=O)C(C)(C)NP(=O)(CO[C@H](C)Cn1cnc2c(N)ncnc21)N[C@H](C)C(=O)OCC(C)C (single isomer, unassigned) [Example 10B] | 0.7 | 2 |  | 
24 | 100 | CCCCCOC(=O)C(C)(C)NP(=O)(CO[C@H](C)Cn1cnc2c(N)ncnc21)N[C@H](C)C(=O)OC(C)C (single isomer, unassigned) [Example 17A] | 15.9 | 78 |  | 
25 | 94.2 | CCCCCOC(=O)C(C)(C)NP(=O)(CO[C@H](C)Cn1cnc2c(N)ncnc21)N[C@H](C)C(=O)OC(C)C (single isomer, unassigned) [Example 17B] | 1.3 | 5.2 |  | 
